Measurements taken from PubChem BioAssay (NCI).
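Protocol summary: plate cells (96-well), add compound at 5 concentrations, incubate 48 h, interpolate endpoints linearly. GI50: concentration for 50% inhibition of growth. TGI: total growth inhibition.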

Experiments:
Test in all cases: NCI-60 cell line screen, 48 h
HOP-62 NSCLC = test system: HOP-62 NSCLC
SW-620 colon = test system: SW-620 colon
SK-MEL-2 melanoma = test system: SK-MEL-2 melanoma
A498 renal = test system: A498 renal
ACHN renal = test system: ACHN renal
HCC-2998 colon = test system: HCC-2998 colon
KM12 colon = test system: KM12 colon
SR leukemia = test system: SR leukemia
CAKI-1 renal = test system: CAKI-1 renal
K-562 leukemia = test system: K-562 leukemia
HCT-15 colon = test system: HCT-15 colon

| SMILES | TGI (HOP-62 NSCLC) | TGI (SW-620 colon) | TGI (SK-MEL-2 melanoma) | TGI (A498 renal) | TGI (ACHN renal) | TGI (HCC-2998 colon) | TGI (KM12 colon) | TGI (SR leukemia) | TGI (CAKI-1 renal) | TGI (K-562 leukemia) | TGI (HCT-15 colon) | GI50 (HOP-62 NSCLC) | GI50 (SW-620 colon) | GI50 (ACHN renal) | GI50 (HCC-2998 colon) | GI50 (KM12 colon) | GI50 (HCT-15 colon) |
| --- | --- | --- | --- | --- | --- | --- | --- | --- | --- | --- | --- | --- | --- | --- | --- | --- | --- |
| Cc1cccc(NC(=S)N=Nc2c(O)[nH]c3ccccc23)c1 | > 100 µM | > 100 µM | > 100 µM | 98.1 µM | > 100 µM | > 100 µM | > 100 µM | > 100 µM | > 100 µM | > 100 µM | > 100 µM | – | – | – | – | – | – |
| CN(C)c1ccc(/C=C/C=C(/C#N)c2ccccc2)cc1 | > 97 µM | 72.5 µM | > 93 µM | 98.5 µM | > 100 µM | > 85.3 µM | 34.1 µM | > 39.7 µM | > 100 µM | > 38 µM | > 100 µM | – | – | – | – | – | – |
| Cc1ccc(N=C2C(=O)C3=C(OC(C)(C)CC3)c3ccccc32)cc1 | 1.76 µM | 2.14 µM | 3.31 µM | 3.81 µM | 1.54 µM | 3.36 µM | 4.01 µM | 1.6 µM | 3.16 µM | 0.86 µM | – | – | – | – | – | – | – |
| CCN(CC)C(=S)SS(=O)(=O)c1ccc([N+](=O)[O-])cc1 | > 100 µM | 37.1 µM | > 100 µM | > 100 µM | > 100 µM | > 100 µM | 24.5 µM | 54.5 µM | 34.4 µM | > 100 µM | > 100 µM | 32.1 µM | 17.9 µM | 36.5 µM | 93.7 µM | 11.1 µM | 52.7 µM |
| S=c1[nH]c(=S)c2cc(Sc3ccc4[nH]c(=S)[nH]c(=S)c4c3)ccc2[nH]1 | – | > 100 µM | > 100 µM | 44 µM | > 100 µM | > 100 µM | 62.5 µM | 51.2 µM | 83.7 µM | > 100 µM | > 100 µM | – | – | – | – | – | – |
| Cn1c(-c2cccs2)cc(-c2cccs2)c1-c1ccsc1 | > 100 µM | > 100 µM | 98.1 µM | > 100 µM | > 100 µM | > 100 µM | > 100 µM | > 100 µM | > 100 µM | > 100 µM | > 100 µM | – | – | – | – | – | – |
| C(=C\C(SCc1ccccc1)SCc1ccccc1)/c1ccccc1 | > 10 µM | > 10 µM | > 10 µM | > 10 µM | > 10 µM | > 10 µM | > 10 µM | > 10 µM | > 10 µM | > 10 µM | > 10 µM | – | – | – | – | – | – |
| CC1C[C@]2(C)C(=O)N(c3ccccc3)C(=N)[C@@H]2N(C)c2ccccc21 (stereo partly specified) | > 100 µM | > 100 µM | > 100 µM | > 100 µM | > 100 µM | > 100 µM | > 100 µM | > 100 µM | > 100 µM | > 100 µM | > 100 µM | – | – | – | – | – | – |
| Cc1cc2c(c(C=NCc3ccccc3)c1)OC1(C=C2)Oc2ccccc2C(=O)N1C (stereo unspecified) | > 100 µM | > 100 µM | 62.6 µM | 77.6 µM | 69.7 µM | 57.4 µM | 64.5 µM | 49.9 µM | 66.5 µM | > 100 µM | 45.4 µM | – | – | – | – | – | – |
| COc1cc2c(cc1OC)CC(N=[N+]=[N-])c1cc(OC)c(OC)cc1/C=C\2 (stereo unspecified) | > 100 µM | > 100 µM | > 100 µM | > 100 µM | > 100 µM | > 100 µM | > 100 µM | > 100 µM | 95.3 µM | > 100 µM | > 100 µM | – | – | – | – | – | – |
| COc1ccc(CCNC(=O)Cc2cc(OC)c(OC)cc2CO)cc1OC | > 100 µM | > 100 µM | > 100 µM | > 100 µM | > 100 µM | > 100 µM | > 100 µM | > 100 µM | > 100 µM | > 100 µM | > 100 µM | – | – | – | – | – | – |
| COc1ccc2c3c1OC1c4[nH]c5ccccc5c4CC4(O)C(C2)N(C)CCC314 (stereo unspecified) | > 100 µM | > 100 µM | 39.5 µM | 31.6 µM | 75.6 µM | 31 µM | > 100 µM | 37 µM | > 100 µM | 37.2 µM | > 100 µM | – | – | – | – | – | – |
| CSC1=C(c2ccc(Cl)cc2)SC(N2CCCCC2)N1c1ccc([N+](=O)[O-])cc1 (stereo unspecified) | 41.8 µM | > 100 µM | 54.3 µM | 73.2 µM | > 100 µM | > 100 µM | > 100 µM | > 100 µM | > 100 µM | > 100 µM | 89 µM | – | – | – | – | – | – |
| CC12Cc3cc4c(cc3C1(c1ccc([N+](=O)[O-])cc1)OCCO2)OCO4 (stereo unspecified) | 46.5 µM | > 100 µM | > 100 µM | > 100 µM | > 100 µM | > 100 µM | > 100 µM | > 100 µM | > 100 µM | > 100 µM | > 100 µM | – | – | – | – | – | – |
| OC1COC(n2c3ccc(Br)cc3c3ccc4c5ccccc5[nH]c4c32)C(O)C1O (stereo unspecified) | 14.7 µM | 29.4 µM | 19.8 µM | 13.9 µM | 10.9 µM | 11.4 µM | 3.53 µM | 13.3 µM | 10.6 µM | 13.6 µM | 15.7 µM | – | – | – | – | – | – |
| C=CC[C@H]1[C@H](O[Si](C)(C)C(C)(C)C)C=CC(=O)[C@@H]1CC(=O)N(Cc1ccccc1)Cc1ccccc1 | > 100 µM | > 100 µM | 38.3 µM | > 100 µM | > 100 µM | 73.6 µM | > 100 µM | > 100 µM | 90.2 µM | > 100 µM | 35.6 µM | – | – | – | – | – | – |
| COc1cccc(NC(=O)CC(=O)N2N=C(C)C(N=Nc3ccc(S(=O)(=O)c4ccc(N=NC5C(=O)N(C(=O)CC(=O)Nc6cccc(OC)c6)N=C5C)cc4)cc3)C2=O)c1 (stereo unspecified) | > 100 µM | > 100 µM | > 100 µM | > 100 µM | > 100 µM | > 100 µM | > 100 µM | > 100 µM | > 100 µM | > 100 µM | > 100 µM | – | – | – | – | – | – |
| O=[N+]([O-])c1ccc2nc(/C=C(\O)c3ccc(F)cc3)c(/C=C(\O)c3ccc(F)cc3)nc2c1 | 31.7 µM | > 100 µM | 45.2 µM | 52.3 µM | 36.6 µM | > 100 µM | > 100 µM | 40.9 µM | > 100 µM | > 100 µM | > 100 µM | – | – | – | – | – | – |
| CC[C@@H](/C=C\CCC1(C[C@H](O)CCC=C(C)C)OCCO1)O[Si](C(C)C)(C(C)C)C(C)C | > 100 µM | 73.9 µM | 30.7 µM | 81.3 µM | 33.6 µM | 31.9 µM | > 100 µM | 51.3 µM | 87.1 µM | 60 µM | 42.8 µM | – | – | – | – | – | – |
| COc1ccccc1N1CCN(Cn2c(=O)oc3cccnc32)CC1 | > 100 µM | > 100 µM | > 100 µM | > 100 µM | > 100 µM | > 100 µM | – | > 100 µM | > 100 µM | > 100 µM | > 100 µM | – | – | – | – | – | – |
| CC[C@H]1OC([C@H](O)C/C=C\C#C[Si](C)(C)C)C/C=C\C[C@H]1O[Si](C)(C)C(C)(C)C (stereo partly specified) | > 100 µM | > 100 µM | > 100 µM | > 100 µM | > 100 µM | > 100 µM | > 100 µM | > 100 µM | > 100 µM | > 100 µM | > 100 µM | – | – | – | – | – | – |
| COC(=O)c1c(C)cccc1/C=C1\Cc2cc(C)cc(C)c2C1=O | 37.7 µM | > 100 µM | 57.3 µM | > 100 µM | > 100 µM | > 100 µM | > 100 µM | > 100 µM | > 100 µM | > 100 µM | > 100 µM | – | – | – | – | – | – |
| O=c1[nH]nc(Cc2ccccc2)n1Nc1ccccc1 | > 100 µM | > 100 µM | > 100 µM | > 100 µM | > 100 µM | > 100 µM | > 100 µM | > 100 µM | > 100 µM | > 100 µM | > 100 µM | – | – | – | – | – | – |
| Cc1nnc2n1-c1ccccc1C(=S)N1CSCC21 (stereo unspecified) | > 100 µM | > 100 µM | > 100 µM | > 100 µM | > 100 µM | > 100 µM | > 100 µM | > 100 µM | > 100 µM | > 100 µM | > 100 µM | – | – | – | – | – | – |
| CC(C)=CCC/C(C)=C/CC/C(C)=C/CC/C(C)=C/CC/C(C)=C\CC/C(C)=C/CC/C(C)=C/CC/C(C)=C/Cc1cc(O)ccc1O | 29.5 µM | > 100 µM | 3.14 µM | 3.51 µM | > 39.8 µM | > 48.8 µM | 2.53 µM | 1.8 µM | 0.703 µM | 26.4 µM | > 33.4 µM | – | – | – | – | – | – |
| CC(C)C1OC(=O)/C=C/C=C/C=C/C=C/C=C/CC(O)CC(O)CC(O)CC(O)CC(O)CC(O)CC(O)CC(O)/C=C/C1C (stereo unspecified) | > 100 µM | > 100 µM | > 100 µM | > 100 µM | > 100 µM | > 100 µM | > 100 µM | > 100 µM | > 100 µM | > 100 µM | > 100 µM | – | – | – | – | – | – |
| Brc1ccc2[nH]cc(-c3nc(-c4c[nH]c5ccccc45)cs3)c2c1 | 21.7 µM | 13.3 µM | 8.43 µM | 8.47 µM | 8.75 µM | 4.17 µM | 5.1 µM | > 100 µM | 8.2 µM | > 20.1 µM | 6.89 µM | – | – | – | – | – | – |
| N#CC1(C#N)NC(c2ccsc2)C(C#N)(C#N)NC1c1ccsc1 (stereo unspecified) | > 100 µM | > 100 µM | > 100 µM | > 100 µM | > 100 µM | > 100 µM | > 100 µM | > 100 µM | > 100 µM | > 100 µM | > 100 µM | – | – | – | – | – | – |
